Assays:
WRS-induced defecation = test: Inhibition of acceleration of stool excretion in a wrap restraint stress (WRS) model; assay type: in vivo; conditions: rat, p.o. 30 minutes before stress, stool over 1 hour, Litchfield-Wilcoxon method
Method: In-vivo test [effect of inhibiting acceleration of stool excretion in a wrap restraint stress (WRS) model]:
The test was conducted by the method of William et al. [Gastroenterology, 94, 611 (1988)]. That is, each of Crj:CD male rats (from 6 to 7 weeks old) was slightly etherized, and the fore shoulder, the foreleg and the chest thereof were wrapped with a paper tape to apply stress thereto. The rat was allowed to stand under stress for 1 hour, and the amount of stool excreted during that time was measured. The test compound was orally administered to the rat 30 minutes before applying the stress thereto. The normal group was etherized, and then allowed to stand for 1 hour without applying stress thereto. Thereafter, the amount of stool excreted was measured. In this test, nicardipine and Compound A were used as comparative substances. The 50% inhibition dose (ID50) relative to the increase in the […] of stool owing to WRS was calculated by the Litchfield-Wilcoxon method, and the results are shown in Table 2-1. In addition, and inhibition of test compounds (lomg/kg, p.o.) expressed as a percentage of control were determined and the results were shown in Table 2—2.

tail artery pressure = test: Decrease in the blood pressure in rats (tail cuff method); assay type: in vivo; conditions: rat, dose causing 20 mmHg decrease in blood pressure 1 hour after administration
Method: Decrease in the blood pressure in rats:
This test was conducted by the tail cuff method. That is, each of Crj:CD male rats (from 8 to 9 weeks old) had been warmed to fully expand the tail artery. The tail artery pressure was then measured immediately before, and 1 hour after, the oral administration of the test compound using a non-invasive blood pressure measuring device. In this test, nicardipine and Compound A were used as comparative substances. With respect to the decrease in the blood pressure, a dose at which to cause the decrease in the blood pressure by 20 mmHg from the blood pressure immediately before the administration was calculated as ED20 from the regression line of the decrease (mmHg) in the blood pressure relative to the logarism of the dose of the test compound. As is clear from Tables 2-1 and 2—2, the compound of the present invention has a higher selectivity for the intestinal tract than Compound A, and it can be an excellent agent of improving an abnormal moving function of the digestive tract.

rat pupillary diameter = test: Anticholinergic activity by mydriasis of rats; assay type: in vivo; conditions: for rat pupillary diameter (mm) 1 hour / rat pupillary diameter (mm) 2 hours / rat pupillary diameter (mm) 6 hours: 300 mg/kg p.o.; for rat pupillary diameter (mm) 1 hour: after 1 hour; for rat pupillary diameter (mm) 2 hours: after 2 hours; for rat pupillary diameter (mm) 6 hours: after 6 hours; for rat pupillary diameter (mm) before: before administration of 300 mg/kg p.o.
Method: Anticholinergic activity by mydriasis of rats: […] The diameter of the pupil after 1, 2 or 6 hours was measured using a stereoscopic microscope of 5x magnification.

[1] = Decrease in the body temperature of rats; assay type: in vivo; conditions: rat, 100 mg/kg p.o.; for change in body temperature 1 hour: rectal temperature after 1 hour; for change in body temperature 2 hour: rectal temperature after 2 hours; for change in body temperature 5 hour: rectal temperature after 5 hours
Method: Decrease in the body temperature of rats:
A suspension of 100 mg/kg of a test compound in 0.5% methyl cellulose was orally administered to each of Crj:CD male rats (from 7 to 8 weeks old), and the body temperature (temperature of the rectum) after 1, 2 or 5 hours was measured using a thermistor thermometer, and the difference in the body temperature between the compound of the present invention and the comparative substance is shown in Table 4.

Acute toxicity test = conditions: ddy, mouse, in vivo, ip; male mice, i.p., mortality observed for 7 days; read-out: 50% lethal dose (LD50, mg/kg, i.p.)
Crj:CD male rats = test: Test for a toxicity in continuous administration for 1 week; assay type: in vivo; conditions: rat, 100 mg/kg p.o. once daily for 1 week
Method: Test for a toxicity in continuous administration for 1 week:
A suspension of 100 mg/kg of the compound in Example 2 or 12 in 0.5% methyl cellulose was orally administered to each of Crj:CD male rats (6 weeks old) continuously for 1 week at a rate of one administration per day to observe general conditions, to measure the body weight, to conduct biochemical inspection of the blood, to measure the weights of the internal organs and to conduct pathological inspection.

Cl.N#Cc1ccc(CCN2CCC[C@@H]2CN2c3ccccc3COc3ccccc32)cc1
melting point: 109 to 112 °C

COc1ccc(CCN2CCC[C@H]2CN2c3ccccc3COc3ccccc32)cc1OC.Cl
melting point: 106 to 109 °C

Cl.c1ccc2c(c1)COc1ccccc1N2C[C@@H]1CCCN1CCc1ccc2c(c1)OCO2
melting point: 158 to 162 °C

COc1cccc(CCN2CCC[C@H]2CN2c3ccccc3COc3ccccc32)c1.Cl
melting point: 164 to 166 °C

Cl.c1ccc(CCN2CCC[C@@H]2CN2c3ccccc3COc3ccccc32)cc1
melting point: 179 to 182 °C

COc1ccc(CCN2CCC[C@@H]2CN2c3ccccc3COc3ccccc32)cc1OC.Cl
melting point: 106 to 109 °C

COc1ccc(CCN2CCC[C@H]2CN2c3ccccc3CSc3ccccc32)cc1.Cl [Compound A, reference compound]
Inhibitory effect on WRS-induced defecation (ID50, mg/kg, p.o.) (WRS-induced defecation): 34.8 mg/kg | Hypotensive effect (ED20, mg/kg, p.o.) (tail artery pressure): >100 mg/kg | rat pupillary diameter (mm) 1 hour (rat pupillary diameter): 2.18 mm | rat pupillary diameter (mm) 2 hours (rat pupillary diameter): 2.27 mm | rat pupillary diameter (mm) 6 hours (rat pupillary diameter): 2.62 mm | rat pupillary diameter (mm) before (rat pupillary diameter): 0.85 mm | change in body temperature 1 hour [1]: −0.5 | change in body temperature 2 hour [1]: −0.6 | change in body temperature 5 hour [1]: −0.5 | LD50 at 7 days (Acute toxicity test): 162 mg/kg

COc1ccc(CCN2CCC[C@@H]2CN2c3ccccc3COc3ccccc32)cc1.Cl [Example 2, (R)-(+)-5,11-dihydro-5-[1-(4-methoxyphenethyl)-2-pyrrolidinylmethyl]-dibenzo[b,e][1,4]oxazepine hydrochloride]
Inhibitory effect on WRS-induced defecation (ID50, mg/kg, p.o.) (WRS-induced defecation): 3.1 mg/kg | Hypotensive effect (ED20, mg/kg, p.o.) (tail artery pressure): >1000 mg/kg | rat pupillary diameter (mm) 1 hour (rat pupillary diameter): 0.90 mm | rat pupillary diameter (mm) 2 hours (rat pupillary diameter): 0.77 mm | rat pupillary diameter (mm) 6 hours (rat pupillary diameter): 0.97 mm | rat pupillary diameter (mm) before (rat pupillary diameter): 0.97 mm | change in body temperature 1 hour [1]: 0 | change in body temperature 2 hour [1]: −0.1 | change in body temperature 5 hour [1]: −0.2 | LD50 at 7 days (Acute toxicity test): 175 mg/kg | toxicity findings (general conditions, body weight, blood biochemistry, organ weights, pathology) (Crj:CD male rats): no remarkable change was observed

Cl.Fc1ccc(CCN2CCC[C@@H]2CN2c3ccccc3COc3ccccc32)cc1 [Example 4, (R)-(+)-5,11-dihydro-5-[1-(4-fluorophenethyl)-2-pyrrolidinylmethyl]dibenzo[b,e][1,4]oxazepine hydrochloride]
Inhibitory effect on WRS-induced defecation (ID50, mg/kg, p.o.) (WRS-induced defecation): 1.8 mg/kg | Hypotensive effect (ED20, mg/kg, p.o.) (tail artery pressure): >1000 mg/kg | rat pupillary diameter (mm) 1 hour (rat pupillary diameter): 0.70 mm | rat pupillary diameter (mm) 2 hours (rat pupillary diameter): 0.57 mm | rat pupillary diameter (mm) 6 hours (rat pupillary diameter): 0.70 mm | rat pupillary diameter (mm) before (rat pupillary diameter): 0.80 mm | change in body temperature 1 hour [1]: −0.3 | change in body temperature 2 hour [1]: −0.2 | change in body temperature 5 hour [1]: +0.1 | LD50 at 7 days (Acute toxicity test): > 200 mg/kg

COc1ccc(CCN2CCC[C@H]2CN2c3ccccc3COc3ccccc32)cc1.Cl [Example 12, (S)-(−)-5,11-dihydro-5-[1-(4-methoxyphenethyl)-2-pyrrolidinylmethyl]dibenzo[b,e][1,4]oxazepine hydrochloride]
LD50 at 7 days (Acute toxicity test): > 280 mg/kg | toxicity findings (general conditions, body weight, blood biochemistry, organ weights, pathology) (Crj:CD male rats): no remarkable change was observed

COC(=O)C1=C(C)NC(C)=C(C(=O)OCCN(C)Cc2ccccc2)C1c1cccc([N+](=O)[O-])c1 (centres unmarked) [nicardipine, reference compound]
Inhibitory effect on WRS-induced defecation (ID50, mg/kg, p.o.) (WRS-induced defecation): 6.8 mg/kg | Hypotensive effect (ED20, mg/kg, p.o.) (tail artery pressure): 4.0 mg/kg

Source: patent publication US6436922B1, “5,11-dihydrobenzo[b,e][1,4]oxazepine derivatives and pharmaceutical compositions containing the same” (Ajinomoto Co., Inc., priority 1996, dated 2002)
